According to ChEMBL document CHEMBL4184289, “Design, synthesis and anticancer activities evaluation of novel 5H-dibenzo[b,e]azepine-6,11-dione derivatives containing 1,3,4-oxadiazole units” (Bioorg Med Chem Lett, 2018):
The source made the active and inactive calls. The rule behind the calls is not given here.

Legend:
[1] = tested on: OVCAR-3; assay: Antiproliferative activity against human OVCAR3 cells after 24 hrs by MTT assay; type: functional, cell-based
[2] = molecular target: Poly [ADP-ribose] polymerase 1 (Homo sapiens, UniProt P09874); assay: Inhibition of recombinant human GST-tagged PARP1 expressed in Escherichia coli using damaged DNA as substrate after 30 mins in presence of NAD+ by resazurin dye based fluorescence assay
Chain of Poly [ADP-ribose] polymerase 1 (P09874 whole entry): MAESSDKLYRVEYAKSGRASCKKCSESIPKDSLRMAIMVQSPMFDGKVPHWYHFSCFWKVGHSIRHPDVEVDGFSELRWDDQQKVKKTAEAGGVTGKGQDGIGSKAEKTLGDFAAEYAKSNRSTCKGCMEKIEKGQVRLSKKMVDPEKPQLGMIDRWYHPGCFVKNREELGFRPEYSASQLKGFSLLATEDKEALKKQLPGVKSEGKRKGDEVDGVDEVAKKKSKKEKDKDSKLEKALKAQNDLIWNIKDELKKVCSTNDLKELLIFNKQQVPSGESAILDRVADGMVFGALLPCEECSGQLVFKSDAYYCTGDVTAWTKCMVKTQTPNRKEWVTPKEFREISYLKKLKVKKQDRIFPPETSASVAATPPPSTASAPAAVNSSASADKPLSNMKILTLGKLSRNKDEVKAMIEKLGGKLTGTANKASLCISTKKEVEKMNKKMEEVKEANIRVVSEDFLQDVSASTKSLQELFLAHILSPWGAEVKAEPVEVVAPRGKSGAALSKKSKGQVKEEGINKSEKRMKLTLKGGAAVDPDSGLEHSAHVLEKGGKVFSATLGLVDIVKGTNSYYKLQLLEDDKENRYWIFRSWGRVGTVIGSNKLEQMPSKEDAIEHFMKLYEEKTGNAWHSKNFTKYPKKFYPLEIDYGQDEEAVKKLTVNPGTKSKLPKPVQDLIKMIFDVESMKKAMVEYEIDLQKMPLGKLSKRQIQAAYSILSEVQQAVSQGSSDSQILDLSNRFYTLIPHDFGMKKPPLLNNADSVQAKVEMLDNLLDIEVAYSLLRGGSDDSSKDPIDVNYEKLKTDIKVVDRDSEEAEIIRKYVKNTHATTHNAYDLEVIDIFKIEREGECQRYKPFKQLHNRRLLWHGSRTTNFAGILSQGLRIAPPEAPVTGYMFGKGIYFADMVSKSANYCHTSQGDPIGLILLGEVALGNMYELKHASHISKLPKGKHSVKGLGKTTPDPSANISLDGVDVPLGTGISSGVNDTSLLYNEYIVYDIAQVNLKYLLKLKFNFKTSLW

[3] = tested on: OVCAR-3; assay: Induction of apoptosis in human OVCAR3 cells assessed as downregulation of Bcl2 protein expression at 0.625 to 10 uM after 24 hrs by Western blot method; type: functional, cell-based
[4] = Homo sapiens, OVCAR-3, 24 h, read-out: IC50

For `COc1ccccc1/C=C/c1nnc(-c2cc(C)cc3c(=O)c4ccccc4c(=O)[nH]c23)o1`, the IC50 [1, 4] was 10700 nM and the IC50 ([2]; read-out: IC50) was 147 nM.
With `COc1ccc(F)cc1/C=C/c1nnc(-c2cccc3c(=O)c4ccccc4c(=O)[nH]c23)o1` the IC50 [1, 4] was > 100000 nM and the IC50 ([2]; read-out: IC50) was 951 nM.
Work on `Cc1cc(-c2nnc(-c3ccccc3Cl)o2)c2[nH]c(=O)c3ccccc3c(=O)c2c1` yielded an IC50 [1, 4] of 4190 nM and an IC50 ([2]; read-out: IC50) of 51 nM.
For `O=c1[nH]c2c(-c3nnc(-c4ccccc4Cl)o3)cccc2c(=O)c2ccccc12`, the IC50 [1, 4] was > 100000 nM and the IC50 ([2]; read-out: IC50) was 1100 nM.
With `COc1ccc(F)cc1/C=C/c1nnc(-c2cc(C)cc3c(=O)c4ccccc4c(=O)[nH]c23)o1` the IC50 [1, 4] was > 100000 nM and the IC50 ([2]; read-out: IC50) was 1050 nM.
For `O=c1[nH]c2c(-c3nnc(-c4ccccc4)o3)cccc2c(=O)c2ccccc12`, the IC50 [1, 4] was > 100000 nM and the IC50 [2] was “Not Active”.
`CNCc1ccc(-c2[nH]c3cc(F)cc4c3c2CCNC4=O)cc1` [RUCAPARIB] showed an IC50 [1, 4] of 3310 nM.
For `COc1ccc(Br)cc1/C=C/c1nnc(-c2cccc3c(=O)c4ccccc4c(=O)[nH]c23)o1`, the IC50 [1, 4] was 1660 nM, the IC50 ([2]; read-out: IC50) was 47 nM and the Activity [3] was “Active”.
With `Cc1cc(-c2nnc(CNC(=O)c3ccccc3Cl)o2)c2[nH]c(=O)c3ccccc3c(=O)c2c1` the IC50 ([1]; ovcar-3) was “Not Active” and the IC50 [2] was “Not Active”.
`COc1c(Br)cc(Br)cc1/C=C/c1nnc(-c2cc(C)cc3c(=O)c4ccccc4c(=O)[nH]c23)o1` was tested, and the IC50 ([1]; ovcar-3) was “Not Active” and the IC50 ([2]; read-out: IC50) was 939 nM.
`COc1ccc(Cl)cc1/C=C/c1nnc(-c2cccc3c(=O)c4ccccc4c(=O)[nH]c23)o1` was tested, and the IC50 [1, 4] was > 100000 nM and the IC50 ([2]; read-out: IC50) was 1260 nM.
With `COc1c(Br)cc(Br)cc1/C=C/c1nnc(-c2cccc3c(=O)c4ccccc4c(=O)[nH]c23)o1` the IC50 [1, 4] was 1400 nM, the IC50 ([2]; read-out: IC50) was 25 nM and the Activity [3] was “Active”.
For `COc1ccc(Cl)cc1/C=C/c1nnc(-c2cc(C)cc3c(=O)c4ccccc4c(=O)[nH]c23)o1`, the IC50 [1, 4] was > 100000 nM and the IC50 ([2]; read-out: IC50) was 1190 nM.
In the case of `COc1ccc(Br)cc1/C=C/c1nnc(-c2cc(C)cc3c(=O)c4ccccc4c(=O)[nH]c23)o1`, the IC50 ([1]; ovcar-3) is reported as “Not Active” and the IC50 [2] is reported as “Not Active”.
`O=C(NCc1nnc(-c2cccc3c(=O)c4ccccc4c(=O)[nH]c23)o1)c1ccccc1` was tested, and the IC50 [1, 4] was > 100000 nM and the IC50 ([2]; read-out: IC50) was 1260 nM.
`Cc1cc(-c2nnc(/C=C/c3ccccc3)o2)c2[nH]c(=O)c3ccccc3c(=O)c2c1` showed an IC50 [1, 4] of 17700 nM and an IC50 ([2]; read-out: IC50) of 446 nM.
`Cc1cc(-c2nnc(-c3ccccc3)o2)c2[nH]c(=O)c3ccccc3c(=O)c2c1` was tested, and the IC50 [1, 4] was 10100 nM and the IC50 ([2]; read-out: IC50) was 277 nM.
With `O=C(NCc1nnc(-c2cccc3c(=O)c4ccccc4c(=O)[nH]c23)o1)c1ccccc1Cl` the IC50 [1, 4] was > 100000 nM and the IC50 ([2]; read-out: IC50) was 745 nM.
With `O=c1[nH]c2c(-c3nnc(/C=C/c4ccccc4)o3)cccc2c(=O)c2ccccc12` the IC50 [1, 4] was 12100 nM and the IC50 ([2]; read-out: IC50) was 400 nM.
Work on `O=c1[nH]c2c(-c3nnc(COc4ccccc4)o3)cccc2c(=O)c2ccccc12` yielded an IC50 [1, 4] of 6280 nM and an IC50 ([2]; read-out: IC50) of 99 nM.
Compound `COc1ccccc1/C=C/c1nnc(-c2cccc3c(=O)c4ccccc4c(=O)[nH]c23)o1` has an IC50 [1, 4] of 8990 nM and an IC50 ([2]; read-out: IC50) of 136 nM.
In the case of `Cc1cc(-c2nnc(CNC(=O)c3ccccc3)o2)c2[nH]c(=O)c3ccccc3c(=O)c2c1`, the IC50 [1, 4] is reported as 11400 nM and the IC50 ([2]; read-out: IC50) is reported as 304 nM.
With `Cc1cc(-c2nnc(COc3ccccc3)o2)c2[nH]c(=O)c3ccccc3c(=O)c2c1` the IC50 ([1]; ovcar-3) was “Not Active” and the IC50 [2] was “Not Active”.
